Earlier results on twelve molecules are cited in patent US20240182910A1, “DRUG-REGULATABLE TRANSCRIPTION FACTORS” (Senti Biosciences, Inc., priority 2021, published 2024).

Common to all, as to design: key to Response to inducer: T (transgene transcription): A, activation; DA, deactivation; DR, derepression; key to Response to inducer: TF (transcription factor): B, binding; D, dissociation
The subject of one series is ArgR-VP16. To be noted: ART; PART (OARG-PhCMVmin); cited from earlier work.
A further series relates to p65-TraR. To be noted: O7x(tra box)-PhCMVmin; cited from earlier work.
In another series the test system is VanA1 (VanR-VP16). As to conditions: VAC-OFF; P1VanO2 (OVanO2-PhCMVmin); cited from earlier work.
The next series has as its system VanA4 (VanR-KRAB). As to conditions: VAC-ON; PVanON8 (PhCMV-OVanO8); cited from earlier work.
The next series relates to mUTS (KRAB-HucR). As to conditions: UREX; PUREX8 (PSV40-OhucO8); cited from earlier work.
A further series deals with NS (HdnoR-KRAB). As to conditions: NICE-ON; PNIC (PSV40-ONIC8); cited from earlier work.
The next series concerns the target NT (HdnoR-VP16) (Paenarthrobacter nicotinovorans, UniProt Q8GAF9). To be noted: NICE-OFF; PNIC (ONIC-PhCMVmin); cited from earlier work.
In a further series the test system is PIT (PIP-VP16). To be noted: PIP-OFF; PPIR (OPIR-Phsp70 min); cited from earlier work.
In another series the test system is SCAPIT3. To be noted: QuoRexPIP-ON (NOT IF gate); OscbR8-OPIR3-PhCMVmin; cited from earlier work.
The subject of the next series is PIT3 (PIP-KRAB). To be noted: PIP-ON; PPIRON (PSV40-OPIR3); cited from earlier work.
Another series concerns tTAPIT3E-KRAB. As to conditions: TET-OFFPIP-ONE-ON; OtetO7-OPIR3-OETR8-PhCMVmin; cited from earlier work.
Another series has as its target REDOX (REX-VP16) (Streptomyces coelicolor, UniProt Q9WX14). As to conditions: PROP (OROP-PhCMVmin); cited from earlier work.
Another series relates to SCAE-KRAB. To be noted: QuoRexE-ON (NOT IF gate); OscbR-OETR8-PhCMVmin; cited from earlier work.
In another series the test system is SCA (ScbR-VP16). As to conditions: QuoRex; PSCA (OscbR-PhCMVmin)PSPA (OpapRI-PhCMVmin); cited from earlier work.
The test system of the next series is SCS (ScbR-KRAB). As to conditions: Q-ON; PSCAON8 (PSV40-OscbR8); cited from earlier work.
A further series has as its target TtgA1 (TtgR-VP16) (Pseudomonas putida, UniProt Q9AIU0). To be noted: PEACE; PTtgR1 (OTtgR-PhCMVmin); cited from earlier work.
In the next series the test system is E-KRAB. As to conditions: E-ON; PETRON8 (PSV40-OETR8); cited from earlier work.
The next series relates to tTAE-KRAB. As to conditions: TET-OFFE-ON (NOT IF gate); OtetO7-OETR8-PhCMVmin; cited from earlier work.
The test system of a further series is ET (E-VP16). To be noted: E-OFF; PETR (OETR-PhCMVmin); cited from earlier work.
A further series concerns the target BIT (BirA-VP16) (Escherichia coli, UniProt P06709). As to conditions: PBIT3 (OBirA3-PhCMVmin); cited from earlier work.
The test system of a further series is rcTA (rCymR-VP16). As to conditions: Cumate - reverse activator; PCR5 (OCuO6-PhCMVmin); cited from earlier work.
A further series deals with cTA (CymR-VP16). To be noted: Cumate - activator; PCR5 (OCuO6-PhCMVmin); cited from earlier work.
A further series concerns the target CymR (Pseudomonas putida, UniProt O33453). As to conditions: Cumate - repressor; PCuO (PCMV5-OCuO); cited from earlier work.

REDOX (REX-VP16), sequence (Q9WX14 whole entry, added parts left off): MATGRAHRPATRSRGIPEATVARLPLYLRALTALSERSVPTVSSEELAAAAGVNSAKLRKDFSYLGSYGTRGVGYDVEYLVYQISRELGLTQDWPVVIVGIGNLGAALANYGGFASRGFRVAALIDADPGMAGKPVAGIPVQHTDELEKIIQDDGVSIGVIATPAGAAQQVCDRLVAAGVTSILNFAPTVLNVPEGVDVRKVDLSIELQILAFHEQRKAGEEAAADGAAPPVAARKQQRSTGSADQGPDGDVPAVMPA
TtgA1 (TtgR-VP16), sequence (Q9AIU0 whole entry, added parts left off): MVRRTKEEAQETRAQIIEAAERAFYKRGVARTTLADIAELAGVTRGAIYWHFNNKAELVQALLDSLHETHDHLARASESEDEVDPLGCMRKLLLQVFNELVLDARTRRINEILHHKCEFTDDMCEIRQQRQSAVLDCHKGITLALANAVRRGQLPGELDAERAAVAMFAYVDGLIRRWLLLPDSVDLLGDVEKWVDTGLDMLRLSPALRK
CymR, sequence (O33453 whole entry): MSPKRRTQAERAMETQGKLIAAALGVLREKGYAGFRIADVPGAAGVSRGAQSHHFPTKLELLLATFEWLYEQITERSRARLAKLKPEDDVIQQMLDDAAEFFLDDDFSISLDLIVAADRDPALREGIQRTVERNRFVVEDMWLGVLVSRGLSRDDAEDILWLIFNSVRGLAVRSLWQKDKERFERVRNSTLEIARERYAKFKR
NT (HdnoR-VP16), sequence (Q8GAF9 whole entry, added parts left off): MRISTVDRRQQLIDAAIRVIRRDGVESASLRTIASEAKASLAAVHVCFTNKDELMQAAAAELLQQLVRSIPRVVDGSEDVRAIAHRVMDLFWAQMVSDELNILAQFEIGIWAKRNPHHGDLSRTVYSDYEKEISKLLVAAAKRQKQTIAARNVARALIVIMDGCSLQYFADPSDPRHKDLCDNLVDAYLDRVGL
BIT (BirA-VP16), sequence (P06709 whole entry, added parts left off): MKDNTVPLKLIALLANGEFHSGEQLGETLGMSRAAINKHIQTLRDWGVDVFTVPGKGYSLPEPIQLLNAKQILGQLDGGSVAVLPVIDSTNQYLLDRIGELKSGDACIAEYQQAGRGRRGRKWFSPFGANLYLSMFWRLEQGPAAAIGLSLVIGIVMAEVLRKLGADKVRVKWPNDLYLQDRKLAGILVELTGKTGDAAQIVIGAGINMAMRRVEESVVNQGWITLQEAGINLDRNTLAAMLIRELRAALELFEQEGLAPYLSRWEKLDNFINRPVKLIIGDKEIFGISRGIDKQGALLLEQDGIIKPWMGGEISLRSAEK

`N=C(N)NCCC[C@H](N)C(=O)O` [Construct 1-Arginine, 1-Arginine]: in the series on ArgR-VP16, the “Response to inducer: T (transgene transcription)” value is given as “A” and the “Response to inducer: TF (transcription factor)” value (“Response to inducer: TF” below) was “B”.
For `CCCCCC(=O)CC(=O)N[C@H]1CCOC1=O` [Construct 3-Oxo-C8-HSL, 3-Oxo-C8-HSL], in the series on p65-TraR, the “Response to inducer: T (transgene transcription)” value is recorded as “A” and the “Response to inducer: TF” value is listed as “B”.
As to `COc1cc(C(=O)O)ccc1O` [Vanillic acid], the entries for the “Response to inducer: T (transgene transcription)” value in the series on VanA1 (VanR-VP16) and with VanA4 (VanR-KRAB) were “DA” and “DR”, respectively. Also, the “Response to inducer: TF” value with VanA1 (VanR-VP16) and with VanA4 (VanR-KRAB) was “D” each time.
Consider `O=c1[nH]c(=O)c2[nH]c(=O)[nH]c2[nH]1` [Uric acid], for which, in the series on mUTS (KRAB-HucR), the “Response to inducer: T (transgene transcription)” value is recorded as “DR” and the “Response to inducer: TF” value was “D”.
As to `CN1CCCC1c1ccc(O)nc1` (stereo not shown) [6-Hydroxy-nicotine], in the series on NS (HdnoR-KRAB), the “Response to inducer: T (transgene transcription)” value was “DR” and the “Response to inducer: TF” value was “D”. At NT (HdnoR-VP16), the “Response to inducer: T (transgene transcription)” value is given as “DA” and the “Response to inducer: TF” value is given as “D”.
As for Pristinamycin I, the “Response to inducer: T (transgene transcription)” value is recorded as “DA” in the series on PIT (PIP-VP16), “DR” in the series with SCAPIT3, “DR” in the series on PIT3 (PIP-KRAB) and “DR” with tTAPIT3E-KRAB. In addition, the “Response to inducer: TF” value in the series on PIT (PIP-VP16), with SCAPIT3, in the series on PIT3 (PIP-KRAB) and with tTAPIT3E-KRAB was “D” each time.
On to `NC(=O)C1=CN([C@@H]2O[C@H](COP(=O)(O)OP(=O)(O)OC[C@H]3O[C@@H](n4cnc5c(N)ncnc54)[C@H](O)[C@@H]3O)[C@@H](O)[C@H]2O)C=CC1` [NADH], for which, at REDOX (REX-VP16), the “Response to inducer: T (transgene transcription)” value is reported as “DA” and the “Response to inducer: TF” value was “D”.
Turning to `CC(C)CCCC[C@@H](O)[C@@H]1C(=O)OC[C@H]1CO` [SCB1], the “Response to inducer: T (transgene transcription)” value in the series on SCAPIT3 was “DA”; in the series on SCAE-KRAB, “DA”; in the series on SCA (ScbR-VP16), “DA”; in the series on SCS (ScbR-KRAB), “DR”. Besides, the “Response to inducer: TF” value with SCAPIT3, with SCAE-KRAB, with SCA (ScbR-VP16) and in the series with SCS (ScbR-KRAB) was “D” throughout.
In the case of `O=C(CCc1ccc(O)cc1)c1c(O)cc(O)cc1O` [Phloretin], at TtgA1 (TtgR-VP16), the “Response to inducer: T (transgene transcription)” value is on record as “DA” and the “Response to inducer: TF” value is “D”.
For `CC[C@H]1OC(=O)[C@H](C)[C@@H](O[C@H]2C[C@@](C)(OC)[C@@H](O)[C@H](C)O2)[C@H](C)[C@@H](O[C@@H]2O[C@H](C)C[C@H](N(C)C)[C@H]2O)[C@](C)(O)C[C@@H](C)C(=O)[C@H](C)[C@@H](O)[C@]1(C)O` [Erythromycin], the “Response to inducer: T (transgene transcription)” value with E-KRAB is “DR”; in the series on SCAE-KRAB, “DR”; in the series with tTAE-KRAB, “DR”; with ET (E-VP16) it was “DA”; in the series on tTAPIT3E-KRAB, “DR”. Besides, the “Response to inducer: TF” value with E-KRAB, in the series on SCAE-KRAB, in the series with tTAE-KRAB, in the series on ET (E-VP16) and with tTAPIT3E-KRAB was “D” throughout.
On to `O=C(O)CCCC[C@@H]1SC[C@@H]2NC(=O)N[C@@H]21` [Biotin], for which, on BIT (BirA-VP16), the “Response to inducer: T (transgene transcription)” value is “A” and the “Response to inducer: TF” value is listed as “B”.
On to `CC(C)c1ccc(C(=O)O)cc1` [Cumate], for which the “Response to inducer: T (transgene transcription)” value in the series with rcTA (rCymR-VP16) was “A”; in the series with cTA (CymR-VP16) it was “DA”; at CymR it was “DR”. Also, the “Response to inducer: TF” value was “B” with rcTA (rCymR-VP16), “D” in the series on cTA (CymR-VP16) and “D” at CymR.
